One data set deals with H1650. Nature of the data set: Non Small Cell Lung Cancer Proliferation Assay (Alamar Blue). The conditions noted are these: Homo sapiens, NCI-H1650, dose response 10 μM to 5 nM. The data set is classed as cell-based, human. How it is done: (§1) Non Small Cell Lung Cancer cell lines are grown and maintained in Corning 175 cm2 flasks in RPMI 1640 media supplemented with 10% FBS, 1% antibiotic solution, 1% additional glutamine and pyruvate. These cells have a doubling time of 1-2 days. All cell types are adherent and grow in colonies. The cells should be kept at a density between 50,000 cells/mL-500,000 cells/mL to provide for optimum growth and adequate nutrition. The cell line should be maintained at 37° C. in a humidified atmosphere with 5% CO2 in a sterile cell culture incubator.
(§2) To perform the assay, the Non Small Cell Lung Cancer lines are diluted in media and plated into 384 well microplates at a final density of 250 cells in 45 μL. To ensure consistency and minimal pipetting error, the cells are plated using the Multidrop 384 with the following settings: Rocker Switch set at 384, Volume 45 and Column 24.
(§3) Low Controls for this assay are made by treating Non Small Cell Lung Cancer cells with 5 ul of staurosporine at 250 uM in 10% DMSO and 1% SDS. [Final concentration in this assay is 25 uM staurosporine in 1% DMSO and 0.1% SDS.]
(§4) High Controls for this assay are made by treating Non Small Cell Lung Cancer cells with 5 ul of 10% DMSO. [Final concentration in this assay is 1% DMSO].
(§5) The remaining wells of the 384 microplate may be treated with different compounds depending on the study. Important Note: All compounds for testing in this assay should be done at the final concentration of 1% DMSO.
(§6) After addition, the cells are placed in cell culture incubator at 37° C. for 48 hours for complete treatment.
(§7) After drug treatment, cytotoxicity is measured by Alamar Blue reduction. 5 μL of Alamar Blue is added to the 384 microplates using the Flexdrop.
(§8) The cells are incubated for 48 hours at 37° C. to complete the Alamar Blue reduction.
(§9) The final step in the assay is to measure the amount of Alamar Blue reduction. […] The Alamar Blue fluorescence is measured at an excitation of 530 nm and emission of 590 nm.
(§10) For the NSCLC project, the cell based assay was screened against a small molecule library of approximately 200,000 compounds. The compound library is stored in our automated robotic freezer (Biophile) at −20° C. in 100% DMSO. Compound freeze and thaw cycles are kept to a minimum. Compounds for use are diluted into the appropriate concentration and plated into 384 well microplates using our custom built low volume 384-well head tool (TPS 384, Apricot Designs Inc., CA, USA). This assay was performed on a fully automated linear track robotic platform (CRS F3 Robot System, Thermo Electron Corp., Ontario, Canada) utilizing several integrated peripherals for plate handling, liquid dispensing, and readout detection. First, non-small cell lung cancer cell lines are dispensed into 384 well microplates (Corning #3712 Tissue Culture Treated Plate, Corning, N.Y., USA) with 5 μL of test compounds at 100 uM in 10% DMSO for screening studies or 1 mM in 10% DMSO to 50 nM in 10% DMSO for dose response studies. The microplates are then placed at 37° C. for 48 hours to complete treatment of cells with compounds. Next, 5 ul of alamar blue was added using a liquid dispenser (FlexDrop Precision Dispenser, Perkin Elmer, Mass., USA) and incubated for 48 hours at 37° C. The alamar blue prompt fluorescence was measured on Victor V (Victor^3 V, Perkin Elmer, Mass., USA) and output data files were loaded into ORIS (Oncology Research Informatics System, MSKCC, NY, USA), a screening data acquisition and analysis platform.
(The colour change of resazurin is a common sign of viable cells or microbes.)

A further data set relates to H1975. The data set is described as above. It counts as cell-based, human. The following applies: Homo sapiens, NCI-H1975, dose response 10 μM to 5 nM. As for the experimental part: as §1, §2, §3, §4, §5, §6, §7, §8, §9, §10
The subject of another data set is H2030. Described as above. It counts as cell-based, human. The following applies: Homo sapiens, NCI-H2030, dose response 10 μM to 5 nM. As for the experimental part:
(§11) These cells have a doubling time of 1-2 days. All cell types are adherent and grow in colonies. The cells should be kept at a density between 50,000 cells/mL-500,000 cells/mL to provide for optimum growth and adequate nutrition. The cell line should be maintained at 37° C. in a humidified atmosphere with 5% CO2 in a sterile cell culture incubator.
(§12) To perform the assay, the Non Small Cell Lung Cancer lines are diluted in media and plated into 384 well microplates at a final density of 250 cells in 45 μL.
as §4
(§13) Important Note: All compounds for testing in this assay should be done at the final concentration of 1% DMSO.
as §6
(§14) After drug treatment, cytotoxicity is measured by Alamar Blue reduction.
as §8, §9
as §10, with “Compounds for use are diluted into the appropriate concentration and plated into 384 well microplates using our custom built low volume 384-well head tool (TPS 384, Apricot Designs Inc., CA, USA).” left out, “First, non-small cell lung cancer cell lines are dispensed into 384 well microplates (Corning #3712 Tissue Culture Treated Plate, Corning, N.Y., USA) with 5 μL of test compounds at 100 uM in 10% DMSO for screening studies or 1 mM in 10% DMSO to 50 nM in 10% DMSO for dose response studies.” left out

The test system of a further data set is H3255. The description is as above. The following applies: Homo sapiens, NCI-H3255, dose response 10 μM to 5 nM. The data set is classed as cell-based, human. How it is done:
as §11, §12, §4, §13, §6, §14, §8, §9
as §10, with “Compounds for use are diluted into the appropriate concentration and plated into 384 well microplates using our custom built low volume 384-well head tool (TPS 384, Apricot Designs Inc., CA, USA).” left out, “First, non-small cell lung cancer cell lines are dispensed into 384 well microplates (Corning #3712 Tissue Culture Treated Plate, Corning, N.Y., USA) with 5 μL of test compounds at 100 uM in 10% DMSO for screening studies or 1 mM in 10% DMSO to 50 nM in 10% DMSO for dose response studies.” left out

A further data set in a line: in vitro. The following applies: human. As for the experimental part: NHBE (normal human bronchiolar epithelial cells) are primary cells obtained from donor lungs and commercially available from Cambrex. The HPLID (human peripheral lung epithelial) cell line has been immortalized with the SV40 large T-antigen. WI-38: human lung fibroblast cell line. HPLID, NHBE and WI-38 cells will serve as controls in the chemical screens. WT: wildtype; WT*: over-expressed wildtype.
Compounds were tested in dose response studies from 10 μM to 5 nM against several non small cell lung cancer lines: H358, H827, H1118, H1650, H1734, H1975, H2030, and H3255, and were also studied in a 72 hour cytotoxicity assay against the NHBE and WI-38 cell lines.

The next data set has as its system H358. As to the kind of experiment: Non Small Cell Lung Cancer Proliferation Assay (Alamar Blue), dose response. The following applies: Homo sapiens, NCI-H358, read-out: H358 Dose Response (uM).
The test system of a further data set is H827. The description is as above. The following applies: Homo sapiens, read-out: H827 Dose Response (uM).
A further data set deals with H1118. The description is as above. The following applies: Homo sapiens, read-out: H1118 Dose Response (uM).

In patent US20130131062A1, “PYRIDAZINONES AND FURAN-CONTAINING COMPOUNDS” (priority 2006, published 2013) one finds IC50 data, which are given here for one compound.

Experimental for H1118: (§15) This assay was performed on a fully automated linear track robotic platform (CRS F3 Robot System, Thermo Electron Corp., Ontario, Canada) utilizing several integrated peripherals for plate handling, liquid dispensing, and readout detection. […] The microplates are then placed at 37° C. for 48 hours to complete treatment of cells with compounds. Next, 5 ul of alamar blue was added using a liquid dispenser (FlexDrop Precision Dispenser, Perkin Elmer, Mass., USA) and incubated for 48 hours at 37° C. The alamar blue prompt fluorescence was measured on Victor V (Victor^3 V, Perkin Elmer, Mass., USA) and output data files were loaded into ORIS (Oncology Research Informatics System, MSKCC, NY, USA), a screening data acquisition and analysis platform. […]
Experimental for H358: as §15
Experimental for H827: as §15

Turning to `Cc1ccccc1-n1ncc(Cl)c(Cl)c1=O` [compound 257017], the IC50 was determined as 2.74 µM in the data set with H1650; 0.47 µM in the data set with H1975; 1.08 µM in the data set with H2030; 2.95 µM in the data set with H3255; 0.74 µM with H358; 0.71 µM with H827. In the data set with H1118, the IC50 came out at 0.49 µM. The IC50 at 72 h in the data set “in vitro” came out at 7.52 µM; in the data set “in vitro” (NHBE CytoTox (uM)), 5.17 µM.
